According to US20230233569A1 (Revolution Medicines, Inc., priority 2020, published 2023):

Key:
[1] = target: NRAS Q61K (Homo sapiens, UniProt P01111+P62937, Q61K); test: Disruption of BRAF RBD interaction with Ras (FRET / MOA assay, with Cyclophilin A); format: biochemical; conditions: NRAS Q61K; read-out: NRAS Q61K FRET data IC50
In short: (§1)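 TR-FRET in 25 mM HEPES pH 7.3, 100 mM NaCl, 5 mM MgCl2, 0.1% BSA: 25 μM Cyclophilin A, 12.5 nM His6-Ras-GMPPNP, 50 nM GST-BRAF RBD with compound (10-point 3-fold series from 30 μM), 3 h at 25° C. Anti-His Eu/anti-GST APC added, 1.5 h more; IC50 from decreased FRET ratio versus DMSO.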

[2] = target: NRAS Q61R (Homo sapiens, UniProt P01111+P62937, Q61R); test: as above; format: biochemical; conditions: NRAS Q61R; read-out: NRAS Q61R FRET data IC50
Sequence of NRAS Q61R (P01111 whole entry Q61R): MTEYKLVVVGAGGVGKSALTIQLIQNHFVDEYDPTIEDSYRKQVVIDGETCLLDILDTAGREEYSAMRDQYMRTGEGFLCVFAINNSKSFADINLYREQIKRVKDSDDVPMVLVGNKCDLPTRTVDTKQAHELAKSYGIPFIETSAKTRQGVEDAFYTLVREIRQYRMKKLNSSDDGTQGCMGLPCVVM
Sequence of NRAS Q61R (P62937 whole entry): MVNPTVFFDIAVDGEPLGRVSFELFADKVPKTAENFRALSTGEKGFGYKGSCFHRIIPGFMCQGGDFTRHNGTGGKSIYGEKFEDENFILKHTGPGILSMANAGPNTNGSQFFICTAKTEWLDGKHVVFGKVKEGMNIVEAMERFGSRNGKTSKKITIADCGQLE
In short: as §1

[3] = system: K-Ras G12C (NCI-H358 cells); test: Potency assay: pERK (AlphaLISA SureFire or In-Cell Western); format: cell-based; conditions: Homo sapiens, NCI-H358; H358 KRAS G12C; read-out: pERK EC50
In short: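 NCI-H358 cells plated overnight, then treated 4 h at 37 °C with 10-point 3-fold DMSO dilutions (10 mM top stock), in duplicate. pERK1/2 read by AlphaLISA SureFire Ultra lysate assay or by In-Cell Western with DRAQ5 DNA stain. IC50 from 4-parameter sigmoidal fit of signal vs log concentration.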

[4] = target: KRAS G12D (Homo sapiens, UniProt P01116+P62937, G12D); test: Disruption of BRAF RBD interaction with Ras (FRET / MOA assay, with Cyclophilin A); format: biochemical; conditions: read-out: KRAS G12D FRET data, IC50
Sequence of KRAS G12D (P01116 1-169 isoform P01116-2 G12D limits assumed): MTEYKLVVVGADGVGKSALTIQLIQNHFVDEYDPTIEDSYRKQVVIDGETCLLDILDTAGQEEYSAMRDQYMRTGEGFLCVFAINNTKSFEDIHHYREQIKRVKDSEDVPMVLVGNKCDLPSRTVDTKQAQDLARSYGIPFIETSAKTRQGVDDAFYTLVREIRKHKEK
Sequence of KRAS G12D (P62937 whole entry): as the sequence (P62937 whole entry) above
In short: (§2)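 Measured via TR-FRET after 3 h at 25 °C with compound (30 μM top, threefold serial steps, ten concentrations) plus K-Ras, Cyclophilin A and BRAF RBD, followed by 1.5 h with anti-His europium (10 nM) and anti-GST allophycocyanin (50 nM). Signal loss versus DMSO gave IC50.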

[5] = target: KRAS G13C (Homo sapiens, UniProt P01116+P62937, G13C); test: as above; format: biochemical; conditions: KRAS G13C; read-out: KRAS G13C FRET data IC50
Sequence of KRAS G13C (P01116 1-169 isoform P01116-2 G13C): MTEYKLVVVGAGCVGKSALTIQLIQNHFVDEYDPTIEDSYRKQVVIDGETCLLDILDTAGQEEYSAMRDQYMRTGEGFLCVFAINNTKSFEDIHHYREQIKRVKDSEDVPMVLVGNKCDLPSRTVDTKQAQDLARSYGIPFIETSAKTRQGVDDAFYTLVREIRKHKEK
Sequence of KRAS G13C (P62937 whole entry): as the sequence (P62937 whole entry) above
In short: as §2

[6] = target: NRAS G12C (Homo sapiens, UniProt P01111+P62937, G12C); test: as above; format: biochemical; conditions: NRAS G12C; read-out: NRAS G12C FRET data IC50
Sequence of NRAS G12C (P01111 whole entry G12C): as the sequence (P01111 whole entry Q61R) above, with G12C, R61Q counted along it
Sequence of NRAS G12C (P62937 whole entry): as the sequence (P62937 whole entry) above

[7] = system: NCI-H358 (K-Ras G12C); test: CellTiter-Glo cell viability assay, 5-day treatment; format: cell-based; conditions: Homo sapiens, NCI-H358, H358, K-Ras G12C; read-out: Additional H358 Cell Viability assay data (K-Ras G12C, IC50)
In short: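 Five-day compound treatment of plated cells; luminescent read after ~30 min at RT. Percent-of-DMSO data fit to a four-parameter logistic model.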

[8] = target: KRAS G12C (Homo sapiens, UniProt P01116+P62937, G12C); test: Disruption of BRAF RBD interaction with Ras (FRET / MOA assay, with Cyclophilin A); format: biochemical; conditions: KRAS G12C; read-out: KRAS G12C FRET data IC50
Sequence of KRAS G12C (P01116 1-169 isoform P01116-2 G12C): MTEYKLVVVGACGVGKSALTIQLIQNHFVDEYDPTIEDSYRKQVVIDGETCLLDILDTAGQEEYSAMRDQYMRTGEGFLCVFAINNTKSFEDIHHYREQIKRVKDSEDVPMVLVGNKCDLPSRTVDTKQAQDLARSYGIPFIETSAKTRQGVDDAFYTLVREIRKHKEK
Sequence of KRAS G12C (P62937 whole entry): as the sequence (P62937 whole entry) above
In short: as §2

Sequence of NRAS Q61K (P01111 whole entry Q61K): as the sequence (P01111 whole entry Q61R) above, with R61K counted along it
Sequence of NRAS Q61K (P62937 whole entry): as the sequence (P62937 whole entry) above

Question: With `C=CC(=O)N(C)CC1CCN(C(=O)N(C)[C@H](C(=O)N[C@H]2Cc3nc(cs3)-c3ccc4c(c3)c(c(-c3cccnc3[C@H](C)OC)n4CC)CC(C)(C)COC(=O)C3CCCN(N3)C2=O)C(C)C)CC1` (stereo partly shown) [Example A629] as the compound, how does the IC50 [1] read?
Answer: Its IC50 is 0.01 to 0.1 µM.

Question: What about the IC50 [2] of the same compound?
Answer: Its IC50 is 0.01 to 0.1 µM.

Question: What about the EC50 [3] of the same compound?
Answer: Its EC50 is < 5 µM.

Question: What about the IC50 [4] of the same compound?
Answer: The IC50 was 0.1 to 1 µM.

Question: And the IC50 [5]?
Answer: The IC50 was 0.01 to 0.1 µM.

Question: And the IC50 [6]?
Answer: Its IC50 is 0.01 to 0.1 µM.

Question: And the IC50 [7]?
Answer: Its IC50 is < 0.01 µM.

Question: With `CO[C@@H](C)c1ncccc1-c1c2c3cc(ccc3n1CC(F)(F)F)N1CCO[C@@H](C[C@H](NC(=O)[C@H](C(C)C)N3CC[C@@]4(CCN(C(=O)C#CC(C)(C)N(C)C)C4)C3=O)C(=O)N3CCCC(N3)C(=O)OCC(C)(C)C2)C1` [Example A628] as the compound, how does the IC50 [1] read?
Answer: The IC50 was > 10 µM.

Question: And the IC50 [2]?
Answer: The IC50 was > 10 µM.

Question: What about the EC50 [3] of the same compound?
Answer: Its EC50 is < 5 µM.

Question: And the IC50 [6]?
Answer: The IC50 was < 0.01 µM.

Question: What about the IC50 [7] of the same compound?
Answer: The IC50 was 0.01 to 0.1 µM.

Question: How did the IC50 [1] turn out when `CCn1c(-c2cccnc2[C@H](C)OC)c2c3cc(ccc31)-c1cccc(c1)C[C@H](NC(=O)[C@@H](COC1CN(C(=O)C#CC(C)(C)N(C)C(C)C)C1)C(C)C)C(=O)N1CCCC(N1)C(=O)OCC(C)(C)C2` (stereo partly shown) [Example A599] was run?
Answer: Its IC50 is > 10 µM.

Question: What about the IC50 [2] of the same compound?
Answer: Its IC50 is > 10 µM.

Question: And the EC50 [3]?
Answer: Its EC50 is < 5 µM.

Question: What about the IC50 [6] of the same compound?
Answer: Its IC50 is 0.01 to 0.1 µM.

Question: What about the IC50 [7] of the same compound?
Answer: Its IC50 is < 0.01 µM.

Question: `CCn1c(-c2cccnc2[C@H](C)OC)c2c3cc(ccc31)-c1cccc(n1)C[C@H](NC(=O)[C@H](C(C)C)N(C)C(=O)N1CCC13CN(C(=O)C#CC(C)(C)N(C)C)C3)C(=O)N1CCCC(N1)C(=O)OCC(C)(C)C2` (stereo partly shown) [Example A623] was tested. Which IC50 [1] did it give?
Answer: The IC50 was 0.1 to 1 µM.

Question: What about the IC50 [2] of the same compound?
Answer: Its IC50 is 1 to 10 µM.

Question: What about the EC50 [3] of the same compound?
Answer: The EC50 was < 5 µM.

Question: What about the IC50 [6] of the same compound?
Answer: The IC50 was 0.1 to 1 µM.

Question: What about the IC50 [7] of the same compound?
Answer: Its IC50 is 0.01 to 0.1 µM.

Question: For `CCn1c(-c2cccnc2[C@H](C)OC)c2c3cc(ccc31)N1CCC[C@@H](C[C@H](NC(=O)[C@H](C(C)C)N(C)C(=O)C3(F)CCN(C(=O)C#CC(C)(C)N(C)C)CC3)C(=O)N3CCCC(N3)C(=O)OCC(C)(C)C2)C1` [Example A616], which IC50 [1] is on record?
Answer: The IC50 was > 10 µM.

Question: And the IC50 [2]?
Answer: Its IC50 is > 10 µM.

Question: And the EC50 [3]?
Answer: The EC50 was < 5 µM.

Question: And the IC50 [4]?
Answer: Its IC50 is > 10 µM.

Question: What about the IC50 [6] of the same compound?
Answer: Its IC50 is < 0.01 µM.

Question: What about the IC50 [8] of the same compound?
Answer: The IC50 was 0.01 to 0.1 µM.

Question: And the IC50 [7]?
Answer: The IC50 was < 0.01 µM.

Question: How did the IC50 [1] turn out when `C=CC(=O)N1CCC[C@H]2CN(C(=O)N(C)[C@H](C(=O)N[C@H]3Cc4nc(cs4)-c4ccc5c(c4)c(c(-c4cccnc4[C@H](C)OC)n5CC)CC(C)(C)COC(=O)C4CCCN(N4)C3=O)C(C)C)C[C@H]21` (stereo partly shown) [Example A618] was run?
Answer: Its IC50 is 0.1 to 1 µM.

Question: And the IC50 [2]?
Answer: Its IC50 is 0.1 to 1 µM.

Question: What about the EC50 [3] of the same compound?
Answer: Its EC50 is < 5 µM.

Question: What about the IC50 [6] of the same compound?
Answer: Its IC50 is 0.1 to 1 µM.

Question: And the IC50 [7]?
Answer: The IC50 was 0.01 to 0.1 µM.

Question: With `C=CC(=O)N1CCC[C@@H]2CN(C(=O)N(C)[C@H](C(=O)N[C@H]3Cc4nc(cs4)-c4ccc5c(c4)c(c(-c4cccnc4[C@H](C)OC)n5CC)CC(C)(C)COC(=O)C4CCCN(N4)C3=O)C(C)C)C[C@@H]21` (stereo partly shown) [Example A619] as the compound, how does the IC50 [1] read?
Answer: The IC50 was 0.1 to 1 µM.

Question: And the IC50 [2]?
Answer: Its IC50 is 0.1 to 1 µM.

Question: And the EC50 [3]?
Answer: The EC50 was < 5 µM.

Question: What about the IC50 [6] of the same compound?
Answer: Its IC50 is 0.1 to 1 µM.

Question: What about the IC50 [7] of the same compound?
Answer: Its IC50 is 0.01 to 0.1 µM.

Question: With `C=CC(=O)N1CCO[C@@H]2CCN(C(=O)N(C)[C@H](C(=O)N[C@H]3Cc4nc(cs4)-c4ccc5c(c4)c(c(-c4cccnc4[C@H](C)OC)n5CC)CC(C)(C)COC(=O)C4CCCN(N4)C3=O)C(C)C)CC21` (stereo partly shown) [Example A596] as the compound, how does the IC50 [1] read?
Answer: Its IC50 is 0.01 to 0.1 µM.

Question: And the IC50 [2]?
Answer: Its IC50 is 0.01 to 0.1 µM.

Question: What about the EC50 [3] of the same compound?
Answer: Its EC50 is < 5 µM.

Question: What about the IC50 [6] of the same compound?
Answer: Its IC50 is 0.01 to 0.1 µM.

Question: What about the IC50 [7] of the same compound?
Answer: The IC50 was < 0.01 µM.

Question: Which results are given for `CCn1c(-c2cccnc2[C@H](C)OC)c2c3cc(ccc31)-c1csc(n1)C[C@H](NC(=O)[C@@H](F)COC1CN(C(=O)C#CC(C)(C)N(C)C)C1)C(=O)N1CCCC(N1)C(=O)OCC(C)(C)C2` (stereo partly shown) [Example A626]?
Answer: IC50 [1]: 1 to 10 µM; IC50 [2]: 1 to 10 µM; EC50 [3]: < 5 µM; IC50 [6]: < 0.01 µM; IC50 [7]: 0.01 to 0.1 µM
